According to paper PMC7948515 (ACS chemical neuroscience, 2020):

Biological target: T1, horse spleen apoferritin (HSAF) (Equus caballus, UniProt P02791)
T1 sequence (P02791 2-175): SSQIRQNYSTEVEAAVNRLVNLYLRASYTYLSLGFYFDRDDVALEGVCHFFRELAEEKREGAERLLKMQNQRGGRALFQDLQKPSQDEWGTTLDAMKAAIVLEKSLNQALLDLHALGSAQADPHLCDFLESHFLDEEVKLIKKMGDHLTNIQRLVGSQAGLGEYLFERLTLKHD
Experiment: 1-AMA fluorescence displacement
Format: binding

SMILES | IC50 [µM]
CC(C)c1cccc(C2(C(F)(F)F)N=N2)c1F [compound 1, 3-(2-fluoro-3-isopropylphenyl)-3-(trifluoromethyl)-3H-diazirine] | 17
CC(C)c1cccc(C(C)C)c1F [fropofol] | 11
